Patent US20060069157A1, “Method of ameliorating or abrogating the effects of a neurodegenerative disorder, such as Huntington's disease, by sodium butyrate chemotherapy” (U.S. DEPARTMENT OF VETERANS AFFAIRS, priority 2004, published 2006)
Marks after values point to notes of the source that are not given here.

Legend:
[1] = test system: R6/2 transgenic mouse model of HD; test: Rotarod motor performance in R6/2 mice; assay type: in vivo; conditions: at 90 days, vs PBS-treated R6/2 mice
Experimental: (§1) Intraperitoneal Dosing: Based upon previous studies (Egorin et al., 1999), a dose response study was performed, treating groups of wild type mice (n=10) and littermate R6/2 mice (n=20) with 100, 200, 400, 600, 1,200, 5,000, and 10,000 mg/kg daily intraperitoneal injection (100 Êl) of sodium butyrate (Acros Organics/Fisher Scientific) dissolved in PBS and made fresh daily. Control groups were treated with PBS injection or untreated. Approximately 240 mice were used for behavioral and survival analyses.
(§2) Clinical Assessment: Both motor performance and body weight were measured throughout the study. Training sessions were given on days 21 and 22 to acclimate the mice to the rotarod apparatus (Columbus Instruments, Columbus, Ohio). Motor performance (constant rotation at 16 rpm) was assessed weekly from 23-63 days of age and twice weekly from 63 days of age in the sodium butyrate-treated, PBS-treated R6/2 mice, and wild type littermate control mice. Three 60 sec trials were given during each session and averaged. Body weights were recorded twice weekly at the same time of day in all groups.
Statistics: The data are expressed as the mean+standard error of the mean. Statistical comparisons of rotarod, weight data, and histology data were compared by ANOVA or repeated measures ANOVA. Survival data was analyzed by the Kaplan-Meier survival curves.

Body weight in R6/2 mice = assay type: in vivo, mouse; conditions: same plateau in PBS-treated mice
Experimental: as §1, §2

[2] = test system: acetylated histone H3 and acetylated histone H4; test: Histone acetylation assay (Western blot, whole brain); assay type: in vivo, mouse
Experimental: Histone Acetylation Assay: At 42 days, groups of 10 R6/2 mice and littermate wild-type control mice were treated with daily with the most optimal dose of sodium butyrate (1.2 g/kg), as determined by survival studies, or PBS via intraperitoneal injections for two weeks. The mice were euthanized at 56 days of age and the brains rapidly frozen and stored at −80 βC. Histone acetylation was determined, using a previously reported Western analysis method (Warrel et al., 1998). Histones were isolated from sodium butyrate treated and untreated whole brains. Western blot analysis for histone acetylation was performed using acetylated histone H3 and acetylated histone H4 antibodies (Upstate Biotechnology, Lake Placid, N.Y.). Protein levels were determined via Coomassie Protein Assay (Pierce, Rockford, Ill.). Each of the sample measurements was carried out twice, with the investigator performing the assays (JKK) blind to genotype and treatment group.

[3] = test system: MKP-1, α-globin, β-globin, preproenkephalin mRNA; test: Real-time PCR of brain mRNAs; assay type: in vivo, mouse; conditions: Striatum, percentage of untreated R6/2, normalized to β-actin
Experimental: Real-time PCR: Reverse transcription of 1 Êg total RNA was conducted with a SuperScript™ First-Strand Synthesis System for RT-PCR (Invitrogen) using random hexamer primers per the manufacturer's instructions. Quantitative real-time PCR studies utilized a Bio-Rad iCycler to follow the amplification of cDNA products by using SYBR_ Green PCR Master Mix (Applied Biosystems) through 50 PCR cycles (95_C for 30 s, 57_C for 1 min, 72_C for 1.5 min). Specific amplification of the target sequences was determined by melt curve analysis and DNA sequencing. Primer pair sequences were as follows: Preproenkephalin (XM—131313) GTGTCCAGGCCCGAGTTC and […]; MKP-1 (NM_013642) […] and […]; _-globin (NM_008218) CCACCCTGCCGATTTCA and CCGCAGMGGCAGCTTAAC; _-globin (NM_008220) […] and CCCAGCACAATCACGATCA; _-actin (X03672) AGGTATCCTGACCCTGAAG and […]. Expression of the mRNAs of interest was calculated using the equation: V=(1+E reference)(C t reference)/(1+E target) (C t target) to correct for potential differences in RNA input and PCR primer efficiencies (Livak and Schmittgen, 2001). V=relative value of target gene normalized to reference (_-actin), E=primer efficiency, C t=threshold crossing cycle number. Differences between genotype and treatment groups were assessed using an unpaired, two-tailed Student's t-test.

Drosophila model of HD = Drosophila model of HD (Steffan 2001); cited from earlier work
Sp1 = conditions: wild type B6CBA mice at 8 weeks of age after 2 weeks of treatment (Ryu, 2003a); cited from earlier work

SMILES: CCCC(=O)[O-].[Na+] [sodium butyrate]
- percentile increase in rotarod performance ([1]; 400 mg/kg): 24.0%
- percentile increase in rotarod performance ([1]; 600 mg/kg): 27.5%
- percentile increase in rotarod performance ([1]; 1,200 mg/kg): 34.9%
- body weight plateau until death (Body weight in R6/2 mice): 19-20 gms
- difference in increased acetylation of H3 and H4 between doses ([2]; 600 mg/kg/d vs 1.2 g/kg/d): did not observe any difference
- H3 and H4 acetylation (Western blot) ([2]; 1.2 g/kg/d i.p. for two weeks from 42 days, R6/2 brain at 56 days): marked increase
- PCR, NaBu Txd R6/2 vs R6/2 ([3]; MKP-1 mRNA, p<0.05): 181%^a
- PCR, NaBu Txd R6/2 vs R6/2 ([3]; Preproenkephalin mRNA): 101%
- PCR, NaBu Txd R6/2 vs R6/2 ([3]; α-globin mRNA, p<0.01): 206%^c
- PCR, NaBu Txd R6/2 vs R6/2 ([3]; β-globin mRNA, p<0.02): 215%^b
- photoreceptor neuron degeneration and lethality (Drosophila model of HD): slow photoreceptor neuron degeneration and ameliorate lethality
- Sp1 acetylation (Sp1): significantly augmented
